Test results from patent publication US20130231472A1, “USE OF MOLECULAR MARKERS FOR THE PRECLINICAL PROFILING OF INHIBITORS OF ENZYMES HAVING HISTONE DEACETYLASE ACTIVITY” (priority 2002, published 2013).
Square brackets hold non-standard residues; d marks the D form. Peptide text beside a SMILES is read from it. * marks the point of attachment. Aoe = N[C@@H](CCCCCC(=O)[C@@H]1CO1)C(=O)O; Sta = CC(C)C[C@H](N)[C@@H](O)CC(=O)O; Isovaleryl = CC(C)CC(=O)*; Nle = CCCC[C@H](N)C(=O)O; Cbz = O=C(OCc1ccccc1)*

Experiments:
[1] = test system: RLIM; test: RLIM protein levels in HEK293T cells (Westernblot); format: cell-based, human; settings: 24 hours
Method: FIG. 12 (A) RLIM protein levels were determined by Westernblot analysis after treatment of HEK293T cells for 24 hours with the HDAC inhibitors VPA (0.5, 1.5, or 5 mM), TSA (30, 100 or 300 nM) or a combination of VPA (1.5 mM) and TSA (100 nM). Actin protein levels are shown as a control for equal loading. (B) RLIM protein levels were determined by Westernblot analysis after treatment of HEK293T cells for 24 hours with the HDAC inhibitor TSA (100 nM), the proteasome inhibitor ALLN (2.5 μM) or a combination of both. Actin protein levels are shown as a control for equal loading.

[2] = test system: HDAC-2; test: Ubiquitinated proteins in anti HDAC-2 immune precipitates (Westernblot against ubiquitin); format: cell-based; settings: VPA 1.5 mM, 24 h; ALLN 5 μM; FIG. 10A
Excerpt: FIG. 10: (A) The total amount of high molecular weight poly-ubiquitinated protein was not altered by VPA treatment of cells (left two lanes). The presence of ubiquitinated proteins in anti HDAC-2 immune precipitates is shown in the right part of the panel. […] Ubiquitinated proteins in the precipitates were detected by Western blot analysis. For lane N a non-immune serum was used instead of the anti HDAC-2 antibody. (B) The presence of mono- and/or oligo-ubiquitinated HDAC-2 upon VPA treatment of HEK293T cells was determined by ectopic expression of His6-tagged ubiquitin followed by VPA-treatment for 36 h as indicated. The proteasome inhibitor MG-132 was added 4 h prior to analysis to enhance the accumulation of ubiquitinated proteins. Electrophoretic mobility and unaltered presence of non-ubiquitinated HDAC-2 were determined by Westernblot analysis of whole cell extracts (left panel). […] Anti-HDAC-2 immuno-reactive bands with the expected mobility of mono- or poly-ubiquitinated HDAC-2 are indicated by a bracket.

[3] = test system: HDAC-2; test: HDAC-2 protein levels in HEK293T cells (Westernblot); format: cell-based, human; settings: for effect of proteasome inhibitor on VPA-induced degradation of HDAC-2: co-treatment with VPA, inhibitor added 4 h before harvest, FIG. 9B; for effect of protease inhibitor on control or VPA-repressed HDAC-2 protein levels: 24 h with or without VPA, FIG. 9A
Method: (§1) FIG. 6: (A) F9 teratocarcinoma or HEK293T embryonic kidney cells were exposed for indicated times to 1 mM VPA. Protein levels of HDAC-2 and HDACs 1 or 3 for reference (HDAC8; N-CoR and Sin3 as data not shown) were determined by Westernblot analysis. […] (C) The effect of other HDAC inhibitors on the amount of HDAC-2 protein was determined by using TSA (100 nM) in a time course analysis in F9 cells (left panel). The HDAC inhibitors TSA (100 nM), trapoxin (TPX, 10 nM), butyrate (1.5 mM) or MS275 (5 μM) were tested at a single time of exposure in HEK293T cells (right panel).
FIG. 9: (A) HEK293T cells were treated for 24 h with VPA or left untreated. The cell penetrating protease inhibitors pepstatin A, leupeptin, or ALLM were added as indicated at the time of VPA addition. (B) Proteasome inhibitors ALLN or MG-132 were added at the indicated concentrations 4 h before cells were harvested. Protein levels of HDAC-2 were determined by Westernblot analysis.

[4] = test system: HDACs; test: Inhibition of HDACs; format: biochemical
[5] = test system: T-cell lymphomas; settings: phase II; cited from earlier work
[6] = test system: stage III/IV non-small cell lung cancer; settings: monotherapy, phase II; cited from earlier work
[7] = test system: TRAIL; test: TRAIL expression in spleen after in vivo treatment (RNAse protection assay); design: species or system mice; settings: leukemic mice; 96 hours of retinoic acid treatment (21-day-release pellet, 5 mg RA); FIG. 4A
Method: Leukemic mice or healthy mice (Ctrl) were then treated with placebo (lanes 1, 3), VPA (400 mg/kg every 12 hours), all-trans retinoic acid (a 21-day-release pellet containing 5 mg RA or placebo: lanes 8-9), and VPA plus retinoic acid (lanes 10-11). Mice were sacrificed 18 hours (lanes 4-5), or 36 hours after beginning of treatment (lanes 3, 6-7, 10-11): total RNAs were collected from the spleens (with a >75% invasion of leukemic blasts as assessed by Giemsa staining) and analyzed by RNAse protection assay to check for expression of TRAIL.

[8] = test system: F9 cells; test: Toxicity in F9 cells (cell loss, actin loading control); format: cell-based, murine; settings: 48 h TSA (100 nM)
Method: as §1

[9] = test system: HDAC-2; test: HDAC-2 protein levels in F9 teratocarcinoma cells (Westernblot); format: cell-based, murine
Method: as §1

[10] = test system: PML-RAR leukemia; settings: one PML-RAR patient with multiple relapses after retinoic acid; cited from earlier work
[11] = target: HDAC-4
Chain of HDAC-4 (P56524 whole entry): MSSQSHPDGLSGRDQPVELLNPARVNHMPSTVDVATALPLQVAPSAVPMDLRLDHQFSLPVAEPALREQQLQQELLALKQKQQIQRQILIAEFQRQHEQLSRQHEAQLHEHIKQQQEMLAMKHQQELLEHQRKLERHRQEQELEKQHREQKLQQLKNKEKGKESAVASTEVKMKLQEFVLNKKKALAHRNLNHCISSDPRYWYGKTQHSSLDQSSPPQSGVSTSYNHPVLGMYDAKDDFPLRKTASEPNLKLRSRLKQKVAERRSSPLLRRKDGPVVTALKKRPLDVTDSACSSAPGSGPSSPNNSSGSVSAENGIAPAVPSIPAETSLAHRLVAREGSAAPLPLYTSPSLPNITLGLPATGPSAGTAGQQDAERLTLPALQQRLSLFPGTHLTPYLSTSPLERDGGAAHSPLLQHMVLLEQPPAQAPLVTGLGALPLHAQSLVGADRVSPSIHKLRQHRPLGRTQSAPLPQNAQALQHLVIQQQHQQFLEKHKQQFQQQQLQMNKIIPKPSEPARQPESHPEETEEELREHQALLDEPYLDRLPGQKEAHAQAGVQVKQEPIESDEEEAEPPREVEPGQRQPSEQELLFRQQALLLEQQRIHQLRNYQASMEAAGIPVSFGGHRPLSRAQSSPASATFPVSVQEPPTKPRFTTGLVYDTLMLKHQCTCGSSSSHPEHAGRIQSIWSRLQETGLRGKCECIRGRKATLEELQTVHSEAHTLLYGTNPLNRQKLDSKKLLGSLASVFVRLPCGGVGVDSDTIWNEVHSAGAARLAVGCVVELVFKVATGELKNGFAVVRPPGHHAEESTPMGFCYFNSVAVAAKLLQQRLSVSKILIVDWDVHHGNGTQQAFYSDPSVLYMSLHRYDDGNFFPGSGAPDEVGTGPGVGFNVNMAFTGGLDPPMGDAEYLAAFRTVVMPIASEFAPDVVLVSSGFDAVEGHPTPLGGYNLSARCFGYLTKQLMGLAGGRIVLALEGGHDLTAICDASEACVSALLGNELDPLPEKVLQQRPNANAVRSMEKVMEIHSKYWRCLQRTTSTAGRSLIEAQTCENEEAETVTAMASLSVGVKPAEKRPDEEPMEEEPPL

[12] = HEK293T cells, VPA 1 mM, TSA 100 nM, trapoxin 10 nM, butyrate 1.5 mM, MS275 5 μM

CCCC[C@@H](C=O)NC(=O)[C@H](CC(C)C)NC(=O)[C@H](CC(C)C)NC(C)=O [ALLN] (Ac-Leu-Leu-[Nle]-aldehyde)
block of TSA-induced proteosomal degradation of RLIM ([1]; TSA 100 nM plus ALLN 2.5 μM, FIG. 12B): can be blocked
amount of ubiquitinated protein precipitated with antibody against HDAC-2 [2]: increase the amount of this anti-ubiquitin reactive protein
effect of proteasome inhibitor on VPA-induced degradation of HDAC-2 ([3]; HEK293T cells): abolished VPA-induces degradation of HDAC-2 completely

CCCC(CCC)C(N)=O [valpromide]
HDAC-2 protein levels ([3]; cell line and concentration not stated): does not affect HDAC-2 protein levels
HDAC inhibition [4]: does not inhibit HDACs

C/C=C1\NC(=O)[C@H]2CSSCC/C=C/[C@H](CC(=O)N[C@H](C(C)C)C(=O)N2)OC(=O)[C@H](C(C)C)NC1=O [depsipeptide]
clinical outcome [5]: used successfully

CCCC(=O)OCOC(=O)C(C)(C)C [Pivanex]
clinical activity [6]: demonstrating activity in stage III/IV non-small cell lung cancer

O=C1N[C@@H](Cc2ccccc2)C(=O)N2CCC[C@@H]2C(=O)N[C@@H](CCCCCC(=O)[C@@H]2CO2)C(=O)N[C@H]1Cc1ccccc1 [trapoxin] (cyclo(FF[dP][Aoe]))
HDAC-2 protein levels [3, 12]: Neither the cyclic tetrapeptide HDAC inhibitor trapoxin nor the anilide-based HDAC inhibitor MS-275 induces reduction of HDAC-2 protein levels

CCCC(=O)O [Butyrate, butyric acid]
HDAC-2 protein levels [3, 12]: Reduction of HDAC-2 protein levels

CC1=C(/C=C/C(C)=C/C=C/C(C)=C/C(=O)O)C(C)(C)CCC1 [retinoic acid, all-trans retinoic acid]
TRAIL expression in spleen [7]: as strongly as upon 96 hours of retinoic acid treatment

CC(=O)N[C@@H](CC(C)C)C(=O)N[C@@H](CC(C)C)C(=O)N[C@H](C=O)CCCNC(=N)N [leupeptin]
effect of protease inhibitor on control or VPA-repressed HDAC-2 protein levels ([3]; HEK293T cells): Neither of the protease inhibitors pepstatin A, leupeptin or ALLM had an effect

CC(C)CC(=O)N[C@H](C(=O)N[C@H](C(=O)N[C@@H](CC(C)C)[C@@H](O)CC(=O)N[C@@H](C)C(=O)N[C@@H](CC(C)C)[C@@H](O)CC(=O)O)C(C)C)C(C)C [pepstatin A] (Isovaleryl-VV[Sta]A[Sta]-OH)
effect of protease inhibitor on control or VPA-repressed HDAC-2 protein levels ([3]; HEK293T cells): Neither of the protease inhibitors pepstatin A, leupeptin or ALLM had an effect

CSCC[C@@H](C=O)NC(=O)[C@H](CC(C)C)NC(=O)[C@H](CC(C)C)NC(C)=O [ALLM] (Ac-Leu-Leu-Met-aldehyde)
effect of protease inhibitor on control or VPA-repressed HDAC-2 protein levels ([3]; HEK293T cells): Neither of the protease inhibitors pepstatin A, leupeptin or ALLM had an effect

MS-275
HDAC-2 protein levels [3, 12]: Neither the cyclic tetrapeptide HDAC inhibitor trapoxin nor the anilide-based HDAC inhibitor MS-275 induces reduction of HDAC-2 protein levels

CC(/C=C/C(=O)NO)=C\[C@@H](C)C(=O)c1ccc(N(C)C)cc1 [TSA, trichostatin A]
toxicity (cell loss, reduction in actin loading control) [8]: toxic
RLIM protein levels / degradation ([1]; VPA 0.5, 1.5 or 5 mM, TSA 30, 100 or 300 nM, FIG. 12): induce an enhanced proteosomal degradation of the E3 ligase RLIM
amount of ubiquitinated protein precipitated with antibody against HDAC-2 [2]: no effect
HDAC-2 protein levels [3]: does not reduce HDAC-2 levels
HDAC-2 protein levels [9]: does not reduce HDAC-2 levels

CC(C)C[C@@H](C=O)NC(=O)[C@H](CC(C)C)NC(=O)[C@H](CC(C)C)NC(=O)OCc1ccccc1 [MG-132] (Cbz-Leu-Leu-Leu-aldehyde)
effect of proteasome inhibitor on VPA-induced degradation of HDAC-2 ([3]; HEK293T cells): abolished VPA-induces degradation of HDAC-2 completely

phenylbutyrate
clinical response of leukemia [10]: complete remission of the leukemia

B1: E3 ubiquitin ligase RLIM (protein)
chain: MENSDSNDKGSGDQSAAQRRSQMDRLDREEAFYQFVNNLSEEDYRLMRDNNLLGTPGESTEEELLRRLQQIKEGPPPQNSDENRGGDSSDDVSNGDSIIDWLNSVRQTGNTTRSGQRGNQSWRAVCRTNPNSGNFRFSLEINVYSNNGSQNSENENEPSARRSSGENVENNSQRQVENPRSESTSARPSRSERNSTEALTEVPPTRGQRRARSRSPDHRRTRARAERSRSPLHPMSEIPRRSHHSISSQTFEHPLVNETEGSSRTRHHVTLRQQISGPELLSRGLFAASGTRNASQGAGSSDTAASGESTGSGQRPPTIVLDLQVRRVRPGEYRQRDSIASRTRSRSQTPNNTVTYESERGGFRRTFSRSERAGVRTYVSTIRIPIRRILNTGLSETTSVAIQTMLRQIMTGFGELSYFMYSDSDSEPTGSVSNRNMERAESRSGRGGSGGGSSSGSSSSSSSSSSSSSSSSSSSSPSSSSGGESSETSSDLFEGSNEGSSSSGSSGARREGRHRAPVTFDESGSLPFLSLAQFFLLNEDDDDQPRGLTKEQIDNLAMRSFGENDALKTCSVCITEYTEGNKLRKLPCSHEYHVHCIDRWLSENSTCPICRRAVLASGNRESVV
in vitro ubiquitination (Ubc8 as E2, RLIM as E3) [11]: the class II HDAC-4 are substrates for Ubc8/RLIM
